# Key:
# N2A neuroblastoma cells = test: VPA effect on Ad.CMV-LacZ gene expression in vitro; format: cell-based
# Method: FIG. 5A is a graph showing N2A cells transduced by Ad.CMV-LacZ, and then exposed to varying concentrations of VPA (as indicated). Twenty-four hours later, LacZ expression was analyzed. FIG. 5B is a graph showing N2A cells cultured on poly-D-lysine coated 12-well plates in NB/B27 medium, and transduced with Ad.CMV-LacZ at a multiplicity of infection (MOI) of 10. Two hours thereafter, the culture medium was replaced with medium containing 1 mM VPA or vehicle (control). The medium was changed every 24-hours thereafter, and cell aliquots were harvested at the indicated time points (1, 3, 5, 7, 10 and 12 days post infection). LacZ expression was then measured in the lysates.
# VPA enhanced virally-vectored gene expression, using a panel of gene delivery platforms that include recombinant, replication-defective type 5 adenovirus vectors. […] Similar effects were also observed in several primary cells transduced by Ad-CMV-LacZ (Fan, et al., J. Virol. Methods 125:23-33 (2005)).
# BALB/c mice = test: VPA effect on Ad-CMV-Luc gene expression in vivo; conditions: Ad-CMV-Luc intramuscular, VPA six days, biophotonic imaging
# Method: In FIG. 6A luciferase-encoding adenovirus vector (Ad.CMV-Luc) was inoculated into the thigh muscle of BALB/c mice. These animals (3/group) were then treated with either VPA or with vehicle alone for six days, by twice-daily i.p. injection. Representative images obtained with the IVIS CCD camera at day 2 and 6 post Ad-infection are presented. In FIG. 6B the levels of adenovirally vectored luciferase gene expression in the mice shown in panel A were quantitated at day 2 and 6 post infection using the Living Image® 2.20.1 software (Xenogen, Alameda, Calif.).
# […] of a luciferase-expressing adenovirus vector (Ad-CMV-Luc) was inoculated into BALB/c mice, via an intramuscular route. These animals were then treated with either VPA or with vehicle alone for six days, and the expression of luciferase was analyzed over time using biophotonic imaging.
# human lung fibroblasts = test: HIV-1 RT based cellular dNTP assay; format: cell-based
# Excerpt: A ^32P labeled 18-mer annealed to a 19-mer template was extended by HIV-1 RT with known amounts of TTP. Percent of the primer extension with each dNTP amount was plotted (B).
# A highly sensitive dNTP assay capable of monitoring dNTP levels in primary cells has been described (Diamond et al., J. Biol. Chem. 279:51545-53 2004). It has been difficult to determine dNTP levels in terminally differentiated primary cells due to the lack of highly sensitive dNTP assays. […] This assay used a ^32P-labeled 18-mer primer annealed to a 19-mer template, allowing incorporation of one of four dNTPs, generating 19-mer products (FIG. 2A). Indeed, this assay is ˜250 times more sensitive than the HPLC based assay. With this assay, dNTP concentrations in primary human macrophages, CD4+ T cells, and human fibroblasts were determined (Table 3). This assay also allowed monitoring of fluctuations of cellular dNTP contents, in different cell types, or under different phases of the cell cycle or culture conditions. Primary cells such as human primary lung fibroblast cells (HFL culture with 10% serum) have 5-10 lower dNTP content than tumor cells such as PANC1 cells (Table 4). Treatment with deoxynucleoside (dNs) enhanced cellular dNTP content in human lung fibroblasts (cultured with 10% serum) by 80 fold (Table 4).
Molecule,"reporter gene (LacZ) expression (N2A neuroblastoma cells; Ad-CMV-LacZ transduced N2A cells, varying VPA, FIG. 5A)","duration of increased expression of the delivered gene post VPA-treatment (N2A neuroblastoma cells; VPA 1 mM, FIG. 5B)",expression of luciferase compared to untreated mice (BALB/c mice),enhancement of cellular dNTP content (human lung fibroblasts; human lung fibroblasts cultured with 10% serum) [fold],[dNTP] (human lung fibroblasts; lung fibroblasts (+dN)),[dNTP] relative to untreated lung fibroblasts (1x) (human lung fibroblasts; lung fibroblasts (+dN)) [x]
"CCCC(CCC)C(=O)O [VPA, Valproic acid]",dose-dependent increase,more than 12 days,increased expression of luciferase,–,–,–
deoxynucleosides [dNs],–,–,–,80,20~90 μM,~80
